In this assay the target is T1, human PD-1 / PD-L1-Ig binding on Jurkat cell line over-expressing human PD-1 (Jurkat-PD-1) (Homo sapiens, UniProt Q15116).
T1 construct: expressed in transfected cells; host or cells: Jurkat
Briefly: Jurkat-PD-1 Cell Binding High-Content Screening Assay (CBA). The following applies: Jurkat-PD-1 cells, PE-labeled PD-L1-Ig 20 nM final; read-out: Jurkat HPD1_PDL1 IC50. The format is cell-based. In a few lines: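 Binding of fluorescent PD-L1-Ig (phycoerythrin linked via the Ig tag, 20 nM final) to PD-1-overexpressing Jurkat cells was imaged after a 2 h, 37° C compound pretreatment and 1 hour ligand incubation.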

Where a SMILES comes first, the peptide text is derived from it. Bridges are numbered along the chain shown (N, C = ends). [ ]: non-standard residue; d: D form. The star is where a group is joined. ξ: configuration not given here. Bip(3'-COOH) = N[C@@H](Cc1ccc(-c2cccc(C(=O)O)c2)cc1)C(=O)O; Phe(4-COOH) = N[C@@H](Cc1ccc(C(=O)O)cc1)C(=O)O; Bip = N[C@@H](Cc1ccc(-c2ccccc2)cc1)C(=O)O; Phe(3-Me) = Cc1cccc(C[C@H](N)C(=O)O)c1; 4Pal = N[C@@H](Cc1ccncc1)C(=O)O; Cha = N[C@@H](CC1CCCCC1)C(=O)O; Ile(3ξ) = CCC(C)[C@H](N)C(=O)O; Carboxymethyl = O=C(O)C*; Orn = NCCC[C@H](N)C(=O)O; Pra = C#CC[C@H](N)C(=O)O; Dab = NCC[C@H](N)C(=O)O; Nva = CCC[C@H](N)C(=O)O

T1 sequence (Q15116 25-288): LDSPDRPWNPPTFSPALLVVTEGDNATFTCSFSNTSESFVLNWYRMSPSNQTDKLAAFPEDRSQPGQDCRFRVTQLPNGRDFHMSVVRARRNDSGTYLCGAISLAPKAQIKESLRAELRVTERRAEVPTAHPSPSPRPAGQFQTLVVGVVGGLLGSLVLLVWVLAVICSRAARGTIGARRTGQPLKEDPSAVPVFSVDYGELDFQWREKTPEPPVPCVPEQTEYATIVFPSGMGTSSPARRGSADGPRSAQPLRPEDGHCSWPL

With `CC[C@H](C)[C@@H]1NC(=O)[C@H](Cc2ccc(-c3ccccc3)cc2)NC(=O)[C@H](C(C)C)NC(=O)[C@H](Cc2cccc(C)c2)NC(=O)[C@H](CC(=O)O)NC(=O)[C@H](Cc2ccncc2)NC(=O)[C@H](Cc2ccc(OCC(=O)O)cc2)NC(=O)CSC[C@@H](C(=O)N[C@@H](C)C(N)=O)NC(=O)[C@H]([C@@H](C)O)NC(=O)[C@H](C(C)C)NC(=O)[C@H](CC2CCCCC2)NC(=O)[C@H](CCN)NC(=O)[C@@H](CC(C)C)NC(=O)[C@H](CCCN)NC1=O` [Compound 1330], the IC50 is 12.8 nM.
Then `CCC(C)[C@@H]1NC(=O)[C@H](Cc2ccc(-c3ccccc3)cc2)NC(=O)[C@H](C(C)C)NC(=O)[C@H](Cc2c[nH]c3ccccc23)NC(=O)[C@H](CC(=O)O)NC(=O)[C@H](Cc2ccc(-c3cccc(C(=O)O)c3)cc2)NC(=O)[C@H](CC(N)=O)NC(=O)CSC[C@@H](C(=O)N[C@@H](C)C(N)=O)NC(=O)[C@H]([C@@H](C)O)NC(=O)[C@H](C(C)C)NC(=O)[C@H](CC2CCCCC2)NC(=O)[C@H](CCN)NC(=O)[C@@H](CC(C)C)NC(=O)[C@H](CCCN)NC1=O` (stereo partly drawn) [Compound 2217] ({CH2CO}-N[Bip(3'-COOH)]DWV[Bip][Ile(3ξ)][Orn][dL][Dab][Cha]VTCA-NH2; thioether N-14), with 16.8 nM; and `C#CC[C@H](NC(=O)[C@@H]1CSCC(=O)N[C@@H](CCC)C(=O)N[C@@H](Cc2ccc(OCC(=O)O)cc2)C(=O)N[C@@H](CC(=O)O)C(=O)N[C@@H](Cc2cccc(C)c2)C(=O)N[C@@H](Cc2ccc(OCC(=O)O)cc2)C(=O)N[C@@H](Cc2ccc(-c3ccccc3)cc2)C(=O)N[C@@H](Cc2ccc(OCC(=O)O)cc2)C(=O)N[C@@H](CCCN)C(=O)N[C@H](CC(C)C)C(=O)N[C@@H](CCN)C(=O)N[C@@H](CC2CCCCC2)C(=O)N[C@@H](C(C)C)C(=O)N[C@@H](CCC(=O)O)C(=O)N1)C(=O)O` [Compound 2702] ({CH2CO}-[Nva]Y(Carboxymethyl)D[Phe(3-Me)]Y(Carboxymethyl)[Bip]Y(Carboxymethyl)[Orn][dL][Dab][Cha]VEC[Pra]-OH; thioether N-14), with 50.5 nM.
As for `CCC(C)[C@@H]1NC(=O)[C@H](Cc2ccc(-c3ccccc3)cc2)NC(=O)[C@H](C(C)C)NC(=O)[C@H](Cc2cccc(C)c2)NC(=O)[C@H](CC(=O)O)NC(=O)[C@H](Cc2ccc(C(=O)O)cc2)NC(=O)[C@H](Cc2ccncc2)NC(=O)CSC[C@@H](C(N)=O)NC(=O)[C@H](CC(N)=O)NC(=O)[C@H](C(C)C)NC(=O)[C@H](CC2CCCCC2)NC(=O)[C@H](CCN)NC(=O)[C@@H](CC(C)C)NC(=O)[C@H](CCCN)NC1=O` (stereo partly drawn) [Compound 2279] ({CH2CO}-[4Pal][Phe(4-COOH)]D[Phe(3-Me)]V[Bip][Ile(3ξ)][Orn][dL][Dab][Cha]VNC-NH2; thioether N-14), the figure is 15.6 nM.
Take `Cc1cccc(C[C@@H]2NC(=O)[C@H](CC(=O)O)NC(=O)[C@H](Cc3ccncc3)NC(=O)[C@H](Cc3ccc(OCC(=O)O)cc3)NC(=O)CSC[C@@H](C(=O)NCC(N)=O)NC(=O)[C@H](CO)NC(=O)[C@H](C(C)C)NC(=O)[C@H](CC(C)C)NC(=O)[C@H](CCN)NC(=O)[C@@H](CC(C)C)NC(=O)[C@H](CCCN)NC(=O)[C@H](C(C)C)NC(=O)[C@H](Cc3ccc(-c4ccccc4)cc3)NC(=O)[C@H](CC(C)C)NC2=O)c1` [Compound 1265] ({CH2CO}-Y(Carboxymethyl)[4Pal]D[Phe(3-Me)]L[Bip]V[Orn][dL][Dab]LVSCG-NH2; thioether N-14): the IC50 amounted to 7.7 nM.
With `CC(C)C[C@H]1NC(=O)[C@H](CCCN)NC(=O)[C@H](CCC(=O)O)NC(=O)[C@H](Cc2ccc(-c3ccccc3)cc2)NC(=O)[C@H](C(C)C)NC(=O)[C@H](Cc2c[nH]c3ccc(C#N)cc23)NC(=O)[C@H](CC(=O)O)NC(=O)[C@H](Cc2ccc(OCC(=O)O)cc2)NC(=O)[C@H](CN)NC(=O)CSC[C@@H](C(=O)N[C@@H](C)C(N)=O)NC(=O)[C@H]([C@@H](C)O)NC(=O)[C@H](C(C)C)NC(=O)[C@H](CC2CCCCC2)NC(=O)[C@H](CCN)NC1=O` [Compound 2143], the IC50 amounted to 139 nM.

(Values after patent publication US20250163104A1, “MACROCYCLIC IMMUNOMODULATORS” (priority 2021, published 2025).)
